# Measured values: patent publication US10323000B2, “Indole derivatives and their use in neurodegenerative diseases” (priority 2014, dated 2019)
# Where two headings read alike, the source gives them in different places.
# Columns and labels:
# [1] = biological target: human P2X7 receptor (Homo sapiens (Human), UniProt Q99572); assay: Pore permeation assay (YO PRO dye uptake); format: cell-based
# [2] = biological target: P2X7 (IL-1β release from THP-1 cells) (Homo sapiens (Human), UniProt Q99572); assay: IL-1β release assay; format: cell-based
# Procedure, shortened: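 THP-1 cells were differentiated with PMA 0.5 μM and primed 4 h with LPS 10 ng/ml. They were then pre-incubated 20 min with compound at 37° C and stimulated 30 min with BzATP 0.8 mM. Mature IL-1β released into the supernatant was quantified by sandwich ELISA.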
# [3] = HEK293 transfected with human P2X7, BzATP 10 uM, YO PRO dye uptake, read-out: hP2X7 IC50
# [4] = THP-1 cells, LPS primed, 0.8 mM BzATP, mature IL-1β by sandwich ELISA, read-out: hTHP-1/IL-ib IC50
# P2X7 (IL-1β release from THP-1 cells), sequence (Q99572 whole entry): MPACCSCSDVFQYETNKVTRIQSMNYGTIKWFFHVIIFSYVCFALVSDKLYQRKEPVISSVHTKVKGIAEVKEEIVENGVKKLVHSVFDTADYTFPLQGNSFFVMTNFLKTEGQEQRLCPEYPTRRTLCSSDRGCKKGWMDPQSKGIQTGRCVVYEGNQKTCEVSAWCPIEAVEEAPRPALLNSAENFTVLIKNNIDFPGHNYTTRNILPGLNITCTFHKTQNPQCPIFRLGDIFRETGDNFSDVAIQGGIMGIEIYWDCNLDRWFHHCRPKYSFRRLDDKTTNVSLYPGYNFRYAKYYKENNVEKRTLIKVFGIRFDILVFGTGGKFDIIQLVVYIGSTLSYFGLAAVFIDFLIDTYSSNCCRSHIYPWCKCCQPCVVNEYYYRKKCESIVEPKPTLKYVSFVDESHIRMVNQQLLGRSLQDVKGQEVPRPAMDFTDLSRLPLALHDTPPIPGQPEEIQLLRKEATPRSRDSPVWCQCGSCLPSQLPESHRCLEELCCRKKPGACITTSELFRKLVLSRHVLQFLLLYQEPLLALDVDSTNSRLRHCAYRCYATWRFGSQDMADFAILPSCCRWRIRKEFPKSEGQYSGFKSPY
# human P2X7 receptor, sequence (Q99572 whole entry): as above
SMILES,IC50 [1] [nM],IC50 [2] [nM],"IC50 [1, 3] [nM]","IC50 [2, 4] [nM]"
"O=C(NCC1(O)CCCC(F)(F)C1)c1cn(CC2CCOC2)c2cccc(Cl)c12 (stereo not drawn) [Compound 146, 4-chloro-N-((3,3-difluoro-1-hydroxycyclohexyl)methyl)-1-((tetrahydrofuran-3-yl)methyl)-1H-indole-3-carboxamide]",10 to 100,10 to 100,–,–
"O=C(NCC1(O)CCC(F)(F)CC1)c1cn(CC2CCOC2)c2cccc(Cl)c12 (stereo not drawn) [Compound 147, 4-chloro-N-((4,4-difluoro-1-hydroxycyclohexyl)methyl)-1-((tetrahydrofuran-3-yl)methyl)-1H-indole-3-carboxamide]",10 to 100,10 to 100,–,–
"O=C(NCC1CCC(F)(F)CC1)c1cn(CC2CCOC2)c2cccc(Cl)c12 (stereo not drawn) [Compound 148, 4-chloro-N-((4,4-difluorocyclohexyl)methyl)-1-((tetrahydrofuran-3-yl)methyl)-1H-indole-3-carboxamide]",10 to 100,10 to 100,–,–
"O=C(NCC1CCC(F)(F)CC1)c1cn(CCOC2CC2)c2cccc(Cl)c12 [Compound 149, 4-chloro-1-(2-cyclopropoxyethyl)-N-((4,4-difluorocyclohexyl)methyl)-1H-indole-3-carboxamide]",10 to 100,101 to 500,–,–
"O=C(NCC1CCC(F)(F)CC1)c1cn(CC2COCCO2)c2cccc(Cl)c12 (stereo not drawn) [Compound 150, 1-((1,4-dioxan-2-yl)methyl)-4-chloro-N-((4,4-difluorocyclohexyl)methyl)-1H-indole-3-carboxamide]",10 to 100,10 to 100,–,–
"CN1CC[C@H]1Cn1cc(C(=O)NCC2CCC(F)(F)CC2)c2c(Cl)cccc21 [Compound 151, (S)-4-chloro-N-((4,4-difluorocyclohexyl)methyl)-1-((1-methylazetidin-2-yl)methyl)-1H-indole-3-carboxamide]",10 to 100,10 to 100,–,–
"CC1(Cn2cc(C(=O)NCC3CCC(F)(F)CC3)c3c(Cl)cccc32)CCN1 (stereo not drawn) [Compound 152, 4-chloro-N-((4,4-difluorocyclohexyl)methyl)-1-((2-methylazetidin-2-yl)methyl)-1H-indole-3-carboxamide]",10 to 100,500 to 999,–,–
"O=C(NCC1CCC(F)(F)CC1)c1cn(C[C@@H]2CCCN2)c2cccc(Cl)c12 [Compound 153, (S)-4-chloro-N-((4,4-difluorocyclohexyl)methyl)-1-(pyrrolidin-2-ylmethyl)-1H-indole-3-carboxamide]",–,10 to 100,< 10,–
"O=C(NCC1CCC(F)(F)CC1)c1cn(C[C@H]2CCCN2)c2cccc(Cl)c12 [Compound 154, (R)-4-chloro-N-((4,4-difluorocyclohexyl)methyl)-1-(pyrrolidin-2-ylmethyl)-1H-indole-3-carboxamide]",10 to 100,10 to 100,–,–
"O=C(NCC1(O)CCCC(F)(F)C1)c1cn(CC2CCCN2)c2cccc(Cl)c12 (stereo not drawn) [Compound 155, 4-chloro-N-((3,3-difluoro-1-hydroxycyclohexyl)methyl)-1-(pyrrolidin-2-ylmethyl)-1H-indole-3-carboxamide]",10 to 100,–,–,< 10
"O=C(NCC1CCCC(F)(F)C1)c1cn(CC2CCCN2)c2cccc(Cl)c12 (stereo not drawn) [Compound 156, 4-chloro-N-((3,3-difluorocyclohexyl)methyl)-1-(pyrrolidin-2-ylmethyl)-1H-indole-3-carboxamide]",10 to 100,–,–,< 10
"CC1CC(CNC(=O)c2cn(CC3CCCN3)c3cccc(Cl)c23)CC(F)(F)C1 (stereo not drawn) [Compound 157, 4-chloro-N-((3,3-difluoro-5-methylcyclohexyl)methyl)-1-(pyrrolidin-2-ylmethyl)-1H-indole-3-carboxamide]",10 to 100,–,–,< 10
"O=C(NCC1CCC(F)(F)CC1)c1cn(CC2CCCN2)c2cccc(Cl)c12 (stereo not drawn) [Compound 158, 4-chloro-N-((4,4-difluorocyclohexyl)methyl)-1-(pyrrolidin-2-ylmethyl)-1H-indole-3-carboxamide]",–,–,< 10,< 10
"O=C(NCC1(O)CCCC(F)(F)C1)c1cn(CC2CCNC2)c2cccc(Cl)c12 (stereo not drawn) [Compound 159, 4-chloro-N-((3,3-difluoro-1-hydroxycyclohexyl)methyl)-1-(pyrrolidin-3-ylmethyl)-1H-indole-3-carboxamide]",10 to 100,101 to 500,–,–
O=C(NCC1CCC(F)(F)CC1)c1cn(CC2CCNC2)c2cccc(Cl)c12 (stereo not drawn) [Compound 160],101 to 500,101 to 500,–,–
"O=C1CC[C@H](Cn2cc(C(=O)NCC3CCC(F)(F)CC3)c3c(Cl)cccc32)N1 [Compound 162, (R)-4-chloro-N-((4,4-difluorocyclohexyl)methyl)-1-((5-oxopyrrolidin-2-yl)methyl)-1H-indole-3-carboxamide]",10 to 100,10 to 100,–,–
O=C(NCC1CCC(F)(F)CC1)c1cn(CC(=O)N2CCC2)c2cccc(Cl)c12 [Compound 163],–,10 to 100,< 10,–

SMILES,IC50 [1] [nM],IC50 [2] [nM],"IC50 [1, 3] [nM]","IC50 [2, 4] [nM]"
"O=C(NCC1CCC(F)(F)CC1)c1cn(CC2COCCN2)c2cccc(Cl)c12 (stereo not drawn) [Compound 164, 4-chloro-N-((4,4-difluorocyclohexyl)methyl)-1-(morpholin-3-ylmethyl)-1H-indole-3-carboxamide]",101 to 500,10 to 100,–,–
"O=C(NCC1(O)CCC(F)(F)CC1)c1cn(CC2CCCCO2)c2cccc(Cl)c12 (stereo not drawn) [Compound 166, 4-chloro-N-((4,4-difluoro-1-hydroxycyclohexyl)methyl)-1-((tetrahydro-2H-pyran-2-yl)methyl)-1H-indole-3-carboxamide]",10 to 100,10 to 100,–,–
"O=C(NCC1CCC(F)(F)CC1)c1cn(CC2CCCCO2)c2cccc(Cl)c12 (stereo not drawn) [Compound 167, 4-chloro-N-((4,4-difluorocyclohexyl)methyl)-1-((tetrahydro-2H-pyran-2-yl)methyl)-1H-indole-3-carboxamide]",10 to 100,10 to 100,–,–
"O=C(NCC1CCC(F)(F)CC1)c1cn(CC2CCOCC2)c2cccc(Cl)c12 [Compound 168, 4-chloro-N-((4,4-difluorocyclohexyl)methyl)-1-((tetrahydro-2H-pyran-4-yl)methyl)-1H-indole-3-carboxamide]",10 to 100,101 to 500,–,–
"CN1CCC[C@H]1Cn1cc(C(=O)NCC2(O)CCC(F)(F)CC2)c2c(Cl)cccc21 [Compound 169, (S)-4-chloro-N-((4,4-difluoro-1-hydroxycyclohexyl)methyl)-1-((1-methylpyrrolidin-2-yl)methyl)-1H-indole-3-carboxamide]",10 to 100,10 to 100,–,–
"CN1CCCC1Cn1cc(C(=O)NCC2CCC(F)(F)CC2)c2c(Cl)cccc21 (stereo not drawn) [Compound 170, 4-chloro-N-((4,4-difluorocyclohexyl)methyl)-1-((1-methylpyrrolidin-2-yl)methyl)-1H-indole-3-carboxamide]",10 to 100,10 to 100,–,–
"O=C(NCC1CCC(F)(F)CC1)c1cn(C2CN(C3CC3)C2)c2cccc(Cl)c12 [Compound 171, 4-chloro-1-(1-cyclopropylazetidin-3-yl)-N-((4,4-difluorocyclohexyl)methyl)-1H-indole-3-carboxamide]",101 to 500,500 to 999,–,–
"O=C(NCC1CCC(F)(F)CC1)c1cn(CC2CCCCN2)c2cccc(Cl)c12 (stereo not drawn) [Compound 173, 4-chloro-N-((4,4-difluorocyclohexyl)methyl)-1-(piperidin-2-ylmethyl)-1H-indole-3-carboxamide]",–,–,< 10,< 10
"O=C(NCC1CCC(F)(F)CC1)c1cn(CC2CCCNC2)c2cccc(Cl)c12 (stereo not drawn) [Compound 174, 4-chloro-N-((4,4-difluorocyclohexyl)methyl)-1-(piperidin-3-ylmethyl)-1H-indole-3-carboxamide]",10 to 100,10 to 100,–,–
"O=C(NCC1CCC(F)(F)CC1)c1cn(CC2CCNCC2)c2cccc(Cl)c12 [Compound 175, 4-chloro-N-((4,4-difluorocyclohexyl)methyl)-1-(piperidin-4-ylmethyl)-1H-indole-3-carboxamide]",101 to 500,101 to 500,–,–
"O=C(NC[C@@]1(O)CCCC(F)(F)C1)c1cn(CCN2CCCC2)c2cccc(Cl)c12 [Compound 176, (R)-4-chloro-N-((3,3-difluoro-1-hydroxycyclohexyl)methyl)-1-(2-(pyrrolidin-1-yl)ethyl)-1H-indole-3-carboxamide]",–,–,> 1000,> 1000
"O=C(NC[C@]1(O)CCCC(F)(F)C1)c1cn(CCN2CCCC2)c2cccc(Cl)c12 [Compound 177, (S)-4-chloro-N-((3,3-difluoro-1-hydroxycyclohexyl)methyl)-1-(2-(pyrrolidin-1-yl)ethyl)-1H-indole-3-carboxamide]",101 to 500,101 to 500,–,–
"O=C(NCC1(O)CCCC(F)(F)C1)c1cn(CCN2CCCC2)c2cccc(Cl)c12 (stereo not drawn) [Compound 178, 4-chloro-N-((3,3-difluoro-1-hydroxycyclohexyl)methyl)-1-(2-(pyrrolidin-1-yl)ethyl)-1H-indole-3-carboxamide]",10 to 100,10 to 100,–,–
"O=C(NCC1CCC(F)(F)CC1)c1cn(CCN2CCCC2)c2cccc(Cl)c12 [Compound 179, 4-chloro-N-((4,4-difluorocyclohexyl)methyl)-1-(2-(pyrrolidin-1-yl)ethyl)-1H-indole-3-carboxamide]",101 to 500,101 to 500,–,–
"CN1CC(F)(F)C[C@H]1Cn1cc(C(=O)NCC2CCC(F)(F)CC2)c2c(Cl)cccc21 [Compound 180, (S)-4-chloro-1-((4,4-difluoro-1-methylpyrrolidin-2-yl)methyl)-N-((4,4-difluorocyclohexyl)methyl)-1H-indole-3-carboxamide]",101 to 500,500 to 999,–,–
"CC(=O)N1CC[C@H]1Cn1cc(C(=O)NCC2CCC(F)(F)CC2)c2c(Cl)cccc21 [Compound 181, (S)-1-((1-acetylazetidin-2-yl)methyl)-4-chloro-N-((4,4-difluorocyclohexyl)methyl)-1H-indole-3-carboxamide]",–,–,101 to 500,101 to 500
